In paper PMC6225212, “Synthesis and Pharmacological Evaluation of Novel Silodosin-Based Arylsulfonamide Derivatives as α1A/α1D-Adrenergic Receptor Antagonist with Potential Uroselective Profile” (Molecules : A Journal of Synthetic Chemistry and Natural …, 2018):
pEC50, pIC50: −log10 of the molar value. “Also recorded” adds a separate entry of the source.

Key:
α1D-ARs = target: T1, α1D-ARs (Homo sapiens, UniProt P25100); experiment: Intrinsic activity at α1D-ARs, aequorin calcium mobilization luminescence; assay type: cell-based; design: key to α1D Profile: ANT—antagonist; AGO—agonist; conditions: for pIC50: antagonist mode, three independent experiments; for pEC50: antagonist, as worded in abstract and text, read-out: EC50(α1D); for α1D Profile: functional profile
T1 sequence (P25100 1-572): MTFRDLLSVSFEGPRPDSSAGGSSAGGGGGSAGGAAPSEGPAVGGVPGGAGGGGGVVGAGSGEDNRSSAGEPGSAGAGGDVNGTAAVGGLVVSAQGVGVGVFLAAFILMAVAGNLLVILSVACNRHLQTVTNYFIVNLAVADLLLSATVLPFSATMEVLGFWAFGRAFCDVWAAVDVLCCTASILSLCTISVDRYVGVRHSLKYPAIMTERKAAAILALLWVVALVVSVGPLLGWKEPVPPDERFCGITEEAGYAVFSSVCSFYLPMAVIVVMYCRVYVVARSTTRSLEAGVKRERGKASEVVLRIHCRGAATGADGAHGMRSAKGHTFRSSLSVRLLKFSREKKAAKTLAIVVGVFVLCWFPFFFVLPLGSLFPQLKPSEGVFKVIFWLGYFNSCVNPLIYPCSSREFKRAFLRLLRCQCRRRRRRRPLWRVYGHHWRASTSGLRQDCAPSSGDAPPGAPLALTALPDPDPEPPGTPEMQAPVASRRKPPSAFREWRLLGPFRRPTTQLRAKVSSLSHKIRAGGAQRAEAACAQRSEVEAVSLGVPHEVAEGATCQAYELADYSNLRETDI
Protocol: The intrinsic activity at α1A-ARs of the selected compounds was assessed by fluorescence detection (Invitrogen, Thermo Fisher Scientific, Carlsbad, CA, USA) of β-lactamase reporter genes using a FRET-enabled substrate. The intrinsic activity at α1B-ARs and α1D-ARs was determined by luminescence detection (PerkinElmer, Zaventem, Belgium) of calcium mobilization using the recombinant-expressed jellyfish photoprotein (Aequorin).
Intrinsic activity assay to α1B- and α1D-ARs was performed according to the manufacturer of the ready-to-use cells with stable expression of the α1B-adrenoreceptors and α1D-adrenoreceptors, respectively (PerkinElmer, Zaventem, Belgium). For measurement, cells (frozen, ready to use) were thawed and resuspended in 10 mL of assay buffer containing 5 µM coelenterazine h. This cells suspension was put in a 10 mL Falcon tube, fixed onto a rotating heel, and incubated for overnight at rt in the dark (8 rpm; 45° angle). Cells were diluted with Assay Buffer to 5000 cells/20 µL. Agonistic ligands 2 × (50 µL/well), diluted in Assay Buffer, were prepared in ½ white polystyrene area plates, and the cell suspension was dispensed in 50 µL volume on the ligands using the injector. The light emitted was recorded for 20 s. Cells with antagonist were incubated for 15 min at room temperature. Thereafter, 50 µL of agonist (3 × EC80 final concentration) was injected into the mix of cells and antagonist and the light emitted was recorded for 20 s.

[1] = In vitro metabolic stability in rat-liver microsomes (RLM); assay type: in vitro ADME; conditions: for Major Metabolic Pathway: RLM; for microsomal CLint at 10 μM / half-life at 10 μM: male, rat, rat liver microsomes, pH 7.4, RLM 0.2 mg/mL, compound 10 μM, 37 °C; for half-life at 10 μM: read-out: t½
Protocol: In vitro biotransformation assays of selected compounds 9 and 10 were performed using rat-liver microsomes (RLM), potassium-phosphate buffer, NADPH-regenerating system (NADP, glucose-6-phosphate, glucose-6-phosphate dehydrogenase), and levallorphan as internal standard, according to the previously published procedure. Compound I and the drug tamsulosin were used as reference standard. UPLC/MS analysis (Waters Corporation, Milford, MA, USA) was performed to determine the quantity of the starting material left in solution. The in vitro half-time (t1/2) for test compounds was determined from the slope of the linear regression of ln % parent compound remaining versus incubation time. The calculated t1/2 was incorporated into the following equation to obtain intrinsic clearance: (Clint) = (volume of incubation [µL]/protein in the incubation [mg]) × 0.693/t1/2.
Metabolic stability of tested compound was analyzed using incubation systems, composed of: tested compounds (10 μM), RLMs (microsomes from rat male liver, pooled; 0.2 mg/mL; Sigma Aldrich), NADPH-regenerating system (NADP+, glucose-6-phosphate and glucose-6-phosphate dehydrogenase in 100mM potassium buffer, pH 7.4; all from Sigma Aldrich), and potassium buffer, pH 7.4. […] Firstly, all samples contained incubation mixture (without NADPH-regenerating system) were preincubated in a thermoblock at 37 °C for 10 min. Then reaction was initiated by the addition of NADPH-regenerating system. In control samples NADPH-regenerating system was replaced with potassium buffer. Probes were incubated in thermoblock for 15 and 30 min at 37 °C. After addition of internal standard (levallorphan, 10 μM), the biotransformation process was stopped by addition of perchloric acid (69–72%, by volume). Next, samples were centrifuged (Centrifuge 5427 R, Eppendorf, Hamburg, Germany) and supernatants were analyzed using UPLC/MS (Waters Corporation). All experiments were run in duplicates. Half-life time was evaluated using a nonlinear regression model using Graph Pad Prism software (Graph Pad Software, La Jolla, San Diego, CA, USA) and intrinsic clearance was calculated from the equation Clint = (volume of incubation [μL]/protein in the incubation [mg]) ×∙0.693/t1/2 [33].

[2] = tested on: normotensive anaesthetized rats; experiment: Effect on blood pressure after single i.v. administration in normotensive anaesthetized rats; assay type: in vivo, rat; conditions: 2 mg/kg i.v.
Protocol: The experiments were performed to our previously reported method.
Identified compounds 9 and 10 with favorable α1B/α1D profile and acceptable metabolic stability were selected for in vivo tests to evaluate their influence on blood pressure. Hypotensive activity was determined after one time i.v. administration to normotensive anaesthetized rats at single doses of 2 mg/kg according to our previously reported method.
The experiments were carried out on male Wistar rats (body weight 200–250 g). The animals were housed in pairs in plastic cages in constant-temperature facilities exposed to a 12:12 h light/dark cycle; water and food were available ad libitum. Experimental groups consisted of 6 animals each. All experiments were conducted in accordance with the NIH Guide for Care and Use of Laboratory Animals and were approved by the Animal Use and Care Committee of the Jagiellonian University (2012, Kraków, Poland).
The normotensive rats were anesthetized with thiopental (70 mg/kg) by i.p. injection. The left carotid artery was cannulated with polyethylene tubing filled with heparin solution in saline to facilitate pressure measurements using PowerLab Apparatus (ADInstruments, Sydney, Australia). Blood pressure was measured: before administration of the compounds—time 0 min (control pressure), and 60 min thereafter. For each compound, studies were performed in the dose of 2 mg/kg b.w. Compounds were dissolved in water and administered intravenously. Initial blood pressure before administration of the tested compounds in all groups was similar.
Statistical calculations were carried out with the GraphPadPrism 6 program (GraphPad Software). Results are given as the arithmetic means with standard deviation (SD). The statistical significance was calculated using a one-way ANOVA and posthoc Bonfferoni Test in comparison to 0.9% NaCl. Differences were considered statistically significant at: * p ≤ 0.05, ** p ≤ 0.01, *** p ≤ 0.001.

pIC50 (α1D-ARs) | pEC50 (α1D-ARs) | α1D Profile (α1D-ARs) | Major Metabolic Pathway [1] | microsomal CLint at 10 μM [1] [µL/min/mg] | half-life at 10 μM [1] [min] | SMILES | effect on blood pressure, in words (significance vs 0.9% NaCl) [2] | decrease of DBP ([2]; over 60 min)
8.96 | 8.96 | ANT | N-dealkylation | 67 | 51.5 | O=S(=O)(NCC1CCN(CCOc2ccccc2OCC(F)(F)F)CC1)c1cccc(Cl)c1F [Compound 9, 3-Chloro-2-fluoro-N-[(1-{2-[(2,2,2-trifluoroethoxy)phenoxy]ethyl}piperidin-4-yl)methyl]benzenesulfonamide] | did not decrease systolic and diastolic blood pressure; also recorded: insignificantly | 
8.57 | 8.57 to 8.96 | ANT | N-dealkylation | 91.7 | 37.8 | O=S(=O)(NCC1CCN(CCOc2ccccc2OCC(F)(F)F)CC1)c1cc(Cl)ccc1F [Compound 10, 5-Chloro-2-fluoro-N-[(1-{2-[(2,2,2-trifluoroethoxy)phenoxy]ethyl}piperidin-4-yl)methyl]benzenesulfonamide] | statistically significant drop in systolic blood pressure was observed from 30 min after administration | 
11.30 |  | ANT | N-dealkylation | 41 | 83 | CCOc1ccccc1OCCN[C@H](C)Cc1ccc(OC)c(S(N)(=O)=O)c1 [tamsulosin, reference compound] | significantly through whole period of observation | 13.3–16.6 mmHg
